{"source": "patent US10617677B2", "about": "“Nuclear transport modulators and uses thereof” (Biogen MA Inc., priority 2012, dated 2020)", "key": {"IMQ-induced psoriasis": {"tested_on": "IMQ-induced psoriasis", "assay": "Imiquimod (IMQ)-induced dermal inflammation/psoriasis model, Study 1", "assay_type": "in vivo, mice", "details": "1 μM, Day 1 to Day 13 daily", "source_text": "Forty (40) male BALB/c mice aged 6 to 8 weeks were used with a pretreatment body weight of 22 to 30 g. The BALB/c mice were randomized into four (4) groups of 10 mice per group. A small area (about 2×2 cm^2) of skin on the dorsum of all the animals was neatly shaved. Group-I animals served as Naïve animals. Psoriasis was induced in Groups II to IV [Group II (IMQ; vehicle), Group III (IMQ; […] Animals were observed daily for a period of 13 days for any treatment-related symptoms. The daily observations included body weight, feed intake, skin thickening, scaling, folding, erythema, nasal discharge, movement, respiration, hair, distended abdomen, skin condition, fur, mucous membrane, presence or absence of secretions, eye condition, tail elevation, motor activity, posture and gait. Severity of damage to the dorsal portion of the skin was assessed by assigning erythema, scaling, folding and skin thickening scores based on external observations of skin, according to rubric in Table 9. […] Compound 2 was prepared by dissolving 1.47 mg of Compound 2 in 300 μL of 100% DMSO."}, "obese Zucker rats": {"tested_on": "obese Zucker rats", "assay": "Food intake and body weight in Zucker rats", "assay_type": "in vivo", "description": "Twenty-one (21) male Zucker rats aged 7 months were allocated into 3 groups of N=7 based on equivalent body weights and food intakes. An additional group of N=7 age matched Zucker lean controls were included as a control. Body weights and food and water intakes were measured at approximately the same time each day (14:30-15:30 h). On treatment days, dosing was at 14:30-15:30 h (approximately 2 hours before lights off).\nThe Zucker obese and lean controls were orally treated with vehicle (10 mL/kg dose volume; 0.5% Pluronic F68 and 0.5% PVP K29/32 in water) on each weekday. Both Compound 2 (1.5 mg/kg and 3 mg/kg) groups were orally treated on each weekday (10 mL/kg dose volume; 0.5% Pluronic F68 and 0.5% PVP K29/32 in water). Prior to the treatment phase, 4 days baseline data were collected. The treatment phase was for 16 days and a washout phase of 6 days was also included."}, "[1]": {"details": "1.5-3 mg/kg oral, 16 day treatment period"}}, "note": "Entries after “also recorded” stand apart in the source; their conditions may differ."}
{"compound": "O=C(/C=C\\n1cnc(-c2cc(C(F)(F)F)cc(C(F)(F)F)c2)n1)NNC(=O)CN1CCOCC1", "note": "[Compound 2, (Z)-3-(3-(3,5-bis(trifluoromethyl)phenyl)-1H-1,2,4-triazol-1-yl)-N′-(2-morpholinoacetyl)acrylohydrazide]", "values": [{"measurement": "body weight, food and water intake", "setting": "IMQ-induced psoriasis", "result": "without adversely affecting body weight, food and water intake"}, {"measurement": "disease activity index / IMQ-induced disease manifestation", "setting": "IMQ-induced psoriasis", "result": "diminished IMQ-induced disease manifestation; also recorded: reduction in disease activity index in comparison to the vehicle treated group"}, {"measurement": "body weight gain versus Zucker vehicle group", "setting": "obese Zucker rats; 1.5 mg/kg oral", "result": "no significant difference in weight gain"}, {"measurement": "body weight gain versus Zucker vehicle group", "setting": "obese Zucker rats; 3 mg/kg oral", "result": "significant difference in body weight gain; also recorded: lower weight gain"}, {"measurement": "body weight compared to Zucker control group", "setting": "obese Zucker rats; [1]", "result": "dose-related decrease"}, {"measurement": "daily food intake compared to Zucker control group", "setting": "obese Zucker rats; [1]", "result": "dose-related decrease; also recorded: dose dependent decrease"}, {"measurement": "water intake", "setting": "obese Zucker rats; [1]", "result": "significantly increased water intake"}]}
